Data set [1] is described as follows: Mouse liver microsomal stability. It counts as in vitro ADME. The gist of the method: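 Test compound at 0.5 μM incubated with 0.25 mg/mL human (200-donor pool) or CD1 mouse liver microsomes, pH 7.4, 37°C, started with […]; sampled 0–30 min. LC-MS/MS quantitation against internal standard; t1/2 and Clint (μL/min/mg) from non-linear regression of % remaining versus time.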
(In general: Microsomes from liver hold many membrane-bound enzymes, among them those of drug oxidation.)

The nature of data set [2]: Parallel artificial membrane permeability assay (PAMPA). It counts as in vitro ADME. In outline: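 Compounds at 10μM final in PBS pH 6.5 (donor) against PBS pH 7.4 (acceptor) across lipid-coated membranes, incubated 5 h at 37°C. Donor, acceptor and T0 levels measured by LC-MS/MS to derive effective permeability (Pe); n = 3.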
(In general: The PAMPA barrier holds no transporters, so it reflects passive diffusion.)

The target of a further data set is T1, 5-HT2A (Homo sapiens, UniProt P28223).
T1 construct: expressed in transfected cells; host or cells: CHO
Put plainly: Bioprofiling 6pt Ag 5-HT2A CHO. It counts as cell-based. To be noted: agonist readout. As to the method:
(§1) The compounds were evaluated across a panel of 20 liability targets (37 functional assays) which included functional cell-based GPCRs and ion channels in both agonist and antagonist readout, measuring calcium flux and biochemical functional assays for nuclear hormone receptors and phosphodiesterases using TR-FRET format, in a 6 point 1:3 dilution dose series (maximum final concentration of 10 μM).

Data set [3] has as its target T2, Beta1 (Homo sapiens, UniProt P08588).
T2 construct: expressed in transfected cells; host or cells: CHO
Put plainly: Bioprofiling 6pt Ag Beta1 CHO. Particulars: agonist readout. It counts as cell-based. As to the method: as §1

Another data set has as its system CHO. Put plainly: Bioprofiling 6pt Ag CHO Hamster. It counts as cell-based. Particulars: agonist readout. The method, then: as §1
Another data set has as its target T3, ETA (Homo sapiens, UniProt P25101).
T3 construct: expressed in transfected cells; host or cells: CHO
T3 sequence (P25101 21-427): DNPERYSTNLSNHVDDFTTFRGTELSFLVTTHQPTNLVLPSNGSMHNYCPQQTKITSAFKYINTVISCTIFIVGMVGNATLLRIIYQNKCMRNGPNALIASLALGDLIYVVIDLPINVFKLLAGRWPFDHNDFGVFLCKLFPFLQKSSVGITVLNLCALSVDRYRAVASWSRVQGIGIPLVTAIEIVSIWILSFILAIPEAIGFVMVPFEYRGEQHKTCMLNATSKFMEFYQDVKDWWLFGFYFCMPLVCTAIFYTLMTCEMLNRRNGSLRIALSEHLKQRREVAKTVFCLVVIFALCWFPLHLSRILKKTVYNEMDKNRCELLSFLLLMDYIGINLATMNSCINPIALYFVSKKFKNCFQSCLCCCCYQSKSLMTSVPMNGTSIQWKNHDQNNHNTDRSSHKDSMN
Put plainly: Bioprofiling 6pt Ag ETA CHO. To be noted: agonist readout. It counts as cell-based. The method, then:
as §1

The next data set concerns the target T4, ETB (Homo sapiens, UniProt P24530).
T4 construct: expressed in transfected cells; host or cells: CHO
T4 sequence (P24530 27-442): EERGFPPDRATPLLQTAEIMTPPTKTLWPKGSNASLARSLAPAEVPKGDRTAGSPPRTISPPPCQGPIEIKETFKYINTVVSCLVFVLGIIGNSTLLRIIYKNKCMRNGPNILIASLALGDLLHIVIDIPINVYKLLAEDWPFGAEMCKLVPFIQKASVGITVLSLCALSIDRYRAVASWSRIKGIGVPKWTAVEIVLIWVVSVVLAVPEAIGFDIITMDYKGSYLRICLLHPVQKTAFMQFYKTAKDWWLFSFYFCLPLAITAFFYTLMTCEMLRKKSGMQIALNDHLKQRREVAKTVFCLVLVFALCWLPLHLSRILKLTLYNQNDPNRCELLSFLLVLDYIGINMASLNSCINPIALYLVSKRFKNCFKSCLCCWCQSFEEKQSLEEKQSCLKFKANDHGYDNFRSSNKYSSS
Put plainly: Bioprofiling 6pt Ag ETB CHO. The format is cell-based. To be noted: agonist readout. As to the method:
as §1

A further data set addresses T5, A1 (Homo sapiens, UniProt P30542).
T5 construct: expressed in transfected cells; host or cells: CHO
T5 sequence (P30542 1-326): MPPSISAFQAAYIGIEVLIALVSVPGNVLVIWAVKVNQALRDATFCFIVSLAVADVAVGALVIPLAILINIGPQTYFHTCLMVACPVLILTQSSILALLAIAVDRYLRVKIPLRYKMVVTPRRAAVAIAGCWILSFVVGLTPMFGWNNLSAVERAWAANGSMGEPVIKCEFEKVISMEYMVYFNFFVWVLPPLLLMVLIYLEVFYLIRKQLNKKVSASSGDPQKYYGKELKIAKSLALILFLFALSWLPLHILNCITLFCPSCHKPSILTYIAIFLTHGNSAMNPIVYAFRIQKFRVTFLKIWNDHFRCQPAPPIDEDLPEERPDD
Put plainly: Bioprofiling 6pt Antag A1 CHO. To be noted: antagonist readout vs N6-Cyclopentyladenosine (CPA). It counts as cell-based. The method, then:
as §1

Data set [4] addresses T2, Beta1. Put plainly: Bioprofiling 6pt Antag Beta1 CHO. The format is cell-based. To be noted: antagonist readout vs Norepinephrine. The method, then: as §1
In the next data set the test system is P2Y. Put plainly: Bioprofiling 6pt Antag P2Y CHO. The format is cell-based. To be noted: antagonist readout vs ATP; read-out: Bioprofiling 6pt Antag P2Y CHO Hamster IC50. The method, then: as §1
Where [5] appears, read: mouse liver microsome intrinsic clearance.
Where [6] appears, read: PAMPA, S1 Data, read-out: PAMPA Pe.
[7] abbreviates: passive permeability, read-out: PAMPA.

Read-outs that look alike come from different tables or passages of the source.

T2 sequence (P08588 whole entry): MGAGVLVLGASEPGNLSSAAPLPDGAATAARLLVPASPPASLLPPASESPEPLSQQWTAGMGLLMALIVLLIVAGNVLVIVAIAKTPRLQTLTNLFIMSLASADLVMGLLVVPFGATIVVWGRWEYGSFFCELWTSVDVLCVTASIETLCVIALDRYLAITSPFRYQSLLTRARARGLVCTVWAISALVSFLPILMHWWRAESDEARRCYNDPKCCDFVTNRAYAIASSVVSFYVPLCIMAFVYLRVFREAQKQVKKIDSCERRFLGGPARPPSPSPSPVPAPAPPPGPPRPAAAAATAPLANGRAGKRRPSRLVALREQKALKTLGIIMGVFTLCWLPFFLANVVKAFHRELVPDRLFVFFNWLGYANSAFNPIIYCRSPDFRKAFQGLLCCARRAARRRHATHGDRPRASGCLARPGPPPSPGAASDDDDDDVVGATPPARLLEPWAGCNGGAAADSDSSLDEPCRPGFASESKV
T1 sequence (P28223 whole entry): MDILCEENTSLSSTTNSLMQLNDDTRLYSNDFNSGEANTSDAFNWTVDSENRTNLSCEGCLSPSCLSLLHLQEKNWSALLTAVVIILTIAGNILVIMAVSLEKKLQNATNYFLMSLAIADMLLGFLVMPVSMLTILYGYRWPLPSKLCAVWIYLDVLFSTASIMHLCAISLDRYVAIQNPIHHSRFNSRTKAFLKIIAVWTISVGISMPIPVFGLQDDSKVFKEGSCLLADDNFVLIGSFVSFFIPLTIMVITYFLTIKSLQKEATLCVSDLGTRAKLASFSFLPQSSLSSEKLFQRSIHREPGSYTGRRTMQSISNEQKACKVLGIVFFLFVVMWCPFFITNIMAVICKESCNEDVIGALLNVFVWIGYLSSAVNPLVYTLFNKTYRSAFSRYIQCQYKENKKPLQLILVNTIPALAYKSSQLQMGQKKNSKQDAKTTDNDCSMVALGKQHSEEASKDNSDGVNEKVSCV

For the compound `N#Cc1ccc2nc(NC(=O)c3ccnc(C(F)(F)F)c3)n(CC(F)(F)F)c2c1` [Compound 44, O=C(c1ccnc(C(F)(F)F)c1)Nc2nc(ccc(C#N)c3)c3n2CC(F)(F)F], in [1] (setting [5]), the “MLM CLint” value stood at 27 µL/min/mg. The Papp at 5 h, 10 μM in data set [2] (setting [6]) was found to be 2.32 ×10⁻⁶ cm/s; in data set [2] (setting [7]), 2.3 ×10⁻⁶ cm/s. In addition, the EC50 at 5-HT2A, at Beta1 [3], in the data set on CHO, on ETA and on ETB was more than 10 µM each time. Moreover, the IC50 on A1, at Beta1 [4] and with P2Y was more than 10 µM each time.

As to `COc1ccc(C(=O)Nc2nc3ccc(C#N)cc3n2CC(F)(F)F)cn1` [Compound 43, O=C(c1ccc(OC)nc1)Nc2nc(ccc(C#N)c3)c3n2CC(F)(F)F], the “MLM CLint” value in data set [1] (S1 Data) came out at 170 µL/min/mg. The Papp at 5 h, 10 μM in data set [2] (setting [6]) was found to be 14.7 ×10⁻⁶ cm/s. Further, the EC50 at 5-HT2A, at Beta1 [3], in the data set with CHO, on ETA and at ETB was more than 10 µM throughout. Besides, the IC50 on A1, on Beta1 [4] and in the data set on P2Y was more than 10 µM each time.

In the case of `Cn1nccc1C(=O)Nc1nc2ccc(C#N)cc2n1CC(C)(C)C` [Compound 29, O=C(Nc1n(CC(C)(C)C)c(c2n1)cc(C#N)cc2)c3n(C)ncc3], the microsomal CLint at 0.5 μM in data set [1] (CD1, mouse, liver microsomes, pH 7.4, mouse liver microsome intrinsic clearance, read-out: MLM Clint) amounted to 17 µL/min/mg. The results for the Papp at 5 h, 10 μM in [2] (setting [6]) and in data set [2] (setting [7]) were 8.71 ×10⁻⁶ cm/s and 4.7 ×10⁻⁶ cm/s, respectively. The EC50 on 5-HT2A, at Beta1 [3], in the data set on CHO, at ETA and on ETB was more than 10 µM each time. Also, the IC50 at A1, against Beta1 [4] and in the data set with P2Y was more than 10 µM throughout.

For `N#Cc1ccc2nc(NC(=O)c3ccc(C(F)(F)F)nc3)n(CC(F)(F)F)c2c1` [Compound 45, O=C(c1ccc(C(F)(F)F)nc1)Nc2nc(ccc(C#N)c3)c3n2CC(F)(F)F], the “MLM CLint” value in [1] (S1 Data) was 18 µL/min/mg. Further, the Papp at 5 h, 10 μM in data set [2] (setting [6]) is 5.43 ×10⁻⁶ cm/s. The EC50 on 5-HT2A, at Beta1 [3], in the data set on CHO, at ETA and at ETB was more than 10 µM throughout. Also, the IC50 on A1, against Beta1 [4] and in the data set on P2Y was more than 10 µM each time.

For `Cn1nccc1C(=O)Nc1nc2ccc(C#N)cc2n1CC(F)(F)F` [Compound 30, O=C(c1ccnn1C)Nc2nc(ccc(C#N)c3)c3n2CC(F)(F)F], the “MLM CLint” value in [1] (setting [5]) was determined as 20 µL/min/mg. Also, the Papp at 5 h, 10 μM in data set [2] (setting [6]) was 27.9 ×10⁻⁶ cm/s; in [2] (setting [7]), 7.9 ×10⁻⁶ cm/s. In addition, the EC50 on 5-HT2A, at Beta1 [3], with CHO, at ETA and at ETB was more than 10 µM throughout. For the same compound, the concentration for half-maximal inhibition (IC50) against A1, at Beta1 [4] and in the data set on P2Y was more than 10 µM in each case.

With `Cn1nc(C(F)(F)F)cc1C(=O)Nc1nc2ccc(C#N)cc2n1CC(F)(F)F` [Compound 39, O=C(c1cc(C(F)(F)F)nn1C)Nc2nc(ccc(C#N)c3)c3n2CC(F)(F)F], the “MLM CLint” value in data set [1] (setting [5]) is 28 µL/min/mg. The values for the Papp at 5 h, 10 μM in data set [2] (setting [6]) and in [2] (setting [7]) were 2.4 ×10⁻⁶ cm/s and 10 ×10⁻⁶ cm/s, respectively. The EC50 on 5-HT2A, at Beta1 [3], with CHO, on ETA and at ETB was more than 10 µM in each case. Moreover, the IC50 on A1, at Beta1 [4] and in the data set with P2Y was more than 10 µM in each case.

Source of the values: PMC7932521, “2-aminobenzimidazoles for leishmaniasis: From initial hit discovery to in vivo profiling” (PLoS Neglected Tropical Diseases, 2021).
